Columns and labels:
Type in all cases: cell-based
WI 38 = experiment: MTT cytotoxicity assay, normal lung fibroblast WI 38; conditions: Homo sapiens, 48 h
Experimental: (§1) HepG2, MCF-7, WI 38, Caco-2 cancer cell lines were cultured in complete media of RPMI and DMEM, respectively, at 5% carbon dioxide and 37 °C following standard tissue culture work. The cells were grown in “10% fetal bovine serum (FBS) and 1% penicillin–streptomycin” in 96-multiwell plate. All the synthesized compounds were screened for their cytotoxicity using 20 μL of MTT solution (Promega, USA) for 48 h using untreated and treated cells with concentrations of (0.01, 0.1, 1, 10, and 100 μM) for 48 h.[41,42] The plate was cultured for 3 hours. The percentage of cell viability was calculated following this equation: […]. An ELISA microplate reader was used to measure the absorbance at 690 nm to calculate the viability versus concentration, and the IC50 value using GraphPad prism software.

HepG-2 = experiment: MTT cytotoxicity assay, HepG-2; conditions: Homo sapiens, HepG2, hepatocellular carcinoma HepG-2, 48 h
Experimental: as §1

Caco2 = experiment: MTT cytotoxicity assay, Caco2; conditions: Homo sapiens, Caco-2, colon cancer Caco2, 48 h
Experimental: as §1

MCF-7 = experiment: MTT cytotoxicity assay, MCF-7; conditions: Homo sapiens, MCF7, breast cancer MCF-7, 48 h
Experimental: as §1

Compound	IC50 (WI 38)	IC50 (HepG-2)	IC50 (Caco2)	IC50 (MCF-7)
CC(=NN=C1C(=O)N(CN(C)C)c2ccccc21)c1nn(-c2ccc(S(N)(=O)=O)cc2)c(=N)s1 [Compound 15a, 4-[5-(1-((1-((Dimethylamino)methyl)-2-oxoindolin-3-ylidene)hydrazineylidene)ethyl)-2-imino-1,3,4-thiadiazol-3(2H)-yl]benzenesulfonamide]	13.4 ± 0.7 µM	6.54 ± 0.4 µM	2.33 ± 0.1 µM	4.34 ± 0.2 µM
COc1ccc(C=NN=C(C)c2nn(-c3ccc(S(N)(=O)=O)cc3)c(=N)s2)cc1 [Compound 7a, 4-[2-Imino-5-(-1-((4-methoxybenzylidene)hydrazineylidene)ethyl)-1,3,4-thiadiazol-3(2H)-yl]benzenesulfonamide]	28.2 ± 1.5 µM	4.17 ± 0.2 µM	3.16 ± 0.2 µM	31.5 ± 1.4 µM
CC(=NN=Cc1ccco1)c1nn(-c2ccc(S(N)(=O)=O)cc2)c(=O)s1 [Compound 11, 4-[5-(1-((Furan-2-ylmethylene)hydrazineylidene)ethyl)-2-oxo-1,3,4-thiadiazol-3(2H)-yl]benzene sulfonamide]	24.5 ± 1.8 µM	15 ± 0.8 µM	8.55 ± 0.4 µM	3.34 ± 0.2 µM
CC(=NN=C1C(=O)Nc2ccccc21)c1nn(-c2ccc(S(N)(=O)=O)cc2)c(=N)s1 [Compound 13, 4-[2-Imino-5-(1-((2-oxoindolin-3-ylidene)hydrazineylidene)ethyl)-1,3,4-thiadiazol-3(2H)-yl]benzenesulfonamide]	11.4 ± 0.6 µM	1.76 ± 0.1 µM	8.99 ± 0.4 µM	17.7 ± 0.8 µM
CC(=NN=Cc1ccc(N(C)C)cc1)c1nn(-c2ccc(S(N)(=O)=O)cc2)c(=N)s1 [Compound 7b, 4-[5-(1-((4-(Dimethylamino)benzylidene)hydrazineylidene)ethyl)-2-imino-1,3,4-thiadiazol-3(2H)-yl]benzenesulfonamide]	49.8 ± 2.6 µM	26.8 ± 1.5 µM	33.6 ± 1.7 µM	35.2 ± 1.6 µM
COc1cc(OC)c(C=NN=C(C)c2nn(-c3ccc(S(N)(=O)=O)cc3)c(=N)s2)c(OC)c1 [Compound 9, 4-[2-Imino-5-(1-((2,4,6-trimethoxybenzylidene)hydrazineylidene)ethyl)-1,3,4-thiadiazol-3(2H)-yl]benzenesulfonamide]	25.4 ± 1.3 µM	12.2 ± 0.7 µM	47.2 ± 2.3 µM	7.21 ± 0.3 µM
CC(=NN=Cc1ccc([N+](=O)[O-])cc1)c1nn(-c2ccc(S(N)(=O)=O)cc2)c(=N)s1 [Compound 7c, 4-[2-Imino-5-(1-((4-nitrobenzylidene)hydrazineylidene)ethyl)-1,3,4-thiadiazol-3(2H)-yl]benzenesulfonamide]	25.4 ± 1.9 µM	3.04 ± 0.2 µM	3.37 ± 0.2 µM	9.59 ± 0.4 µM
CCN(CC)CN1C(=O)C(=NN=C(C)c2nn(-c3ccc(S(N)(=O)=O)cc3)c(=N)s2)c2ccccc21 [Compound 15b, 4-[5-(1-((1-((Diethylamino)methyl)-2-oxoindolin-3-ylidene)hydrazineylidene)ethyl)-2-imino-1,3,4-thiadiazol-3(2H)-yl)benzenesulfonamide]	16.8 ± 0.9 µM	1.62 ± 0.1 µM	0.78 ± 0.04 µM	4.43 ± 0.2 µM
